Data published in PMC8521408 (Journal of Antimicrobial Chemotherapy, 2021).
Read-outs that look alike come from different tables or passages of the source.

Columns and labels:
[1] = New-onset AKI during vancomycin treatment
[2] = for Cumulative AUC: mean ± SD, SD
[3] = Other clinical endpoints during ICU stay
[4] = for Covariate effect, CRGT on CL: exponent of (CRGT/83) on CL
[5] = final model estimate, scaled to 70 kg TBW, critically ill ICU patients
[6] = median of bootstrap of final model (1000 samples)

## CN[C@H](CC(C)C)C(=O)N[C@H]1C(=O)N[C@@H](CC(N)=O)C(=O)N[C@H]2C(=O)N[C@H]3C(=O)N[C@H](C(=O)N[C@H](C(=O)O)c4cc(O)cc(O)c4-c4cc3ccc4O)[C@H](O)c3ccc(c(Cl)c3)Oc3cc2cc(c3O[C@@H]2O[C@H](CO)[C@@H](O)[C@H](O)[C@H]2O[C@H]2C[C@](C)(N)[C@H](O)[C@H](C)O2)Oc2ccc(cc2Cl)[C@H]1O [vancomycin]
[1]; AUC0–24 < 400 mg·h/L, 4/27, all three groups
  incidence of new-onset AKI: 14.8%
[1]; AUC0–24 below 600 mg·h/L, 17/69
  incidence of new-onset AKI: 24.6%
[1]; AUC0–24 ≥400 mg·h/L, 30/77, all three groups
  incidence of new-onset AKI: 39.0%
[1]; AUC0–24 ≥ 600 mg·h/L, 17/35
  incidence of new-onset AKI: 48.6%
[1]; AUC0–24 ≥400 versus < 400 mg·h/L
  number needed to harm (new-onset AKI): 4.1
[1]; CD group, fixed first dose 1000 mg, 10/35 patients
  percentage of patients with new-onset AKI: 28.6%
[1]; LD group, 25 mg/kg loading dose, 17/45 patients
  percentage of patients with new-onset AKI: 37.8%
[2]; CD group, fixed first dose 1000 mg (N = 39 courses)
  median AUC0–24: 401 µg·h/mL
[2]; CD group, fixed first dose 1000 mg (N = 39 courses), assuming MIC = 1 mg/L
  percentage of courses achieving AUC0–24 ≥400 mg·h/L: 53.8%
[2]; LD group, 25 mg/kg loading dose (N = 50 courses)
  median AUC0–24: 602 µg·h/mL
[2]; all episodes included for model building (N = 104)
  Cumulative AUC: 1937 ± 1448 µg·h/mL
[2]; courses with a loading dose, 26/50
  percentage of courses with AUC0–24 > 600 mg·h/L: 52%
[2]; episodes with 25 mg/kg loading dose, LD group (N = 50)
  Cumulative AUC: 2027 ± 1543 µg·h/mL
[2]; episodes without loading dose, CD group, first dose 1000 mg (N = 39)
  Cumulative AUC: 1849 ± 1359 µg·h/mL
[3]; CD group
  percentage of patients still on CVVH or other RRT at ICU discharge: 21.2%
  percentage of patients with AKI at ICU discharge: 30.3%
  percentage of patients with AKI using the maximum RIFLE score during the complete ICU stay: 59.4%
[3]; CD group, fixed first dose 1000 mg
  mean AKI duration: 75.2 h
[3]; LD group
  percentage of patients still on CVVH or other RRT at ICU discharge: 31.7%
  percentage of patients with AKI at ICU discharge: 34.1%
  percentage of patients with AKI using the maximum RIFLE score during the complete ICU stay: 57.5%
[3]; LD group, 25 mg/kg loading dose
  mean AKI duration: 37.2 h
[4]; bootstrap median
  Covariate effect, CRGT on CL: 0.63
[4]; final model estimate
  Covariate effect, CRGT on CL: 0.65
[4]; [5]
  V1, vancomycin central volume of distribution: 13.4 L
  V2, vancomycin peripheral volume of distribution: 36.9 L
[4]; [6]
  CL, vancomycin clearance: 1.83 L/h
  V1, vancomycin central volume of distribution: 13.1 L
  V2, vancomycin peripheral volume of distribution: 35.7 L
